Data as given in US5104859A, “Continuous administration of adenosine to reduce pulmonary vascular resistance” (priority 1990, dated 1992).

What was measured:
[1] = Purine levels in arterial plasma before, during and after adenosine-induced controlled hypotension (HPLC); details: in vivo
Experimental: Blood gases were measured with appropriate electrodes for pH, PCO2, and PO2 (Radiometer, Copenhagen). The hemoglobin concentration was determined spectrophotometrically. Samples for the determination of adenosine and its metabolites were collected as described by Sollevi et al., Acta Physiol. Scand., 120: 171-76 (1984). Adenosine and inosine were purified and analyzed by HPLC as described by Fredholm and Sollevi., J. Physiol. (London), 313: 351-67 (1981). Hypoxanthine, xanthine, and uric acid were analyzed by HPLC according to the method of Schweinsberg and Loo., J. Chromatogr., 181: 103-7 (1980). Arterial levels of dipyridamole were determined by HPLC. J. Chromatogr., 162: 98-103 (1979). Blood lactate was measured according to Tfelt-Hansen and Siggard-Andersen. Scand. Clin. Lab. Invest., 27:15-19 (1971).
Measurements and blood samplings were performed immediately before hypotension, as late as possible during hypotension (1-5 min before terminating the infusion) and approximately 30 min after the hypotensive period.
Dipyridamole (5 mg. per ml) was infused iv (0.3-0.4 mg. per kg. over a period of 5-10 min) approximately 20 minutes prior to the induction of controlled hypotension. […] (See Pedersen, J. Chromatogr., 162: 98-103 (1979).
The infusion was started at a rate of 0.01 mg. per kg. per minute, which was doubled at 15 second intervals until the desired MABP level of 40-50 mmHg was reached. […] Serum creatinine was determined before and on two consecutive days after operation. The standard ECG was recorded the day before and the day after operation.
The statistical significance (control 1 vs. adenosine and control 1 vs. control 2) was determined by Student's t test for paired data. A P value of <0.05 was regarded as significant.
The purine levels of nine of the patients were determined prior to, during and after adenosine-induced controlled hypotension.

[2] = test system: systemic arterial blood pressure and central hemodynamics; test: Controlled hypotension in surgical patients without dipyridamole pretreatment; type: in vivo, human
Experimental: For this indication, adenosine typically is administered intravenously via the left basilic vein or via a central vein in an amount (or at a rate) sufficient to achieve the desired hypotensive effect.
The actual plasma levels of adenosine employed for controlled hypotension will vary, depending upon such factors as the particular patient, the age of the patient and the desired degree of hypotension. […] The hypotensive effect of adenosine was then studied upon this hypotensive dose of dipyridamole.
Subsequent to the tests described above, a 20 mM solution of adenosine in isotonic saline was administered to 50 surgical patients employing techniques similar to those described, except that pretreatment with dipyridamole was omitted.

[3] = test system: platelets; test: Platelet protection during cardiopulmonary bypass; type: in vivo, human
Experimental: Twenty-five patients scheduled for coronary artery bypass surgery were randomly assigned to two groups--one with adenosine infusion (n=13) and the other with placebo infusion (n=12).
Intravenous anesthesia was used, either high-dose fentanyl (100-150 ug/kg) or balanced anesthesia (thiopental, fentanyl, diazepam and N2 O/O2.
During cardiopulmonary bypass (CPB), mean arterial blood pressure (MABP) above 70 mmHg was treated with the vasodilator sodium nitroprusside (SNP), except in the final phase or rewarming. CPB was performed with SARN roller pump and a Shiley oxygenator (100A) primed with 2000 ml crystalloid solution (75 mg heparin). The perfusion rate was kept at approximately […] body surface. Moderate hypothermia (25° C.) was induced. Cardioplegia was obtained with Ringer's solution (with added potassium up to 20 mM/1). Heparin (3 mg/kg) was administered as a bolus injection before cannulation. The heparin effect was controlled by measurements of activated clotting time. (Hemocron® Int. Technidyne Corp, USA). […] At the termination of CPB, the heparin effect was antagonized with protamine (c. 1.3 mg/mg heparin). ACT was checked 10-20 min after the protamine injection. ACT values 120 sec were considered satisfactory.
Platelet count (Linson 431 A cell counter) and hematocrit were determined in arterial samples before anesthesia, after thoracotomy, during CPB at 10, 20, 40, 60, 80 and 100 min, 30 min after CPB and on the postoperative day. Platelet counts were expressed in percentage of preanesthesia levels and were corrected for hemodilution. MABP was monitored continuously via a catheter introduced in the radial artery. All patients received hypertonic mannitol (1-1.5 g/kg) during CPB and urine production was calculated as ml/.min of CPB (Table VI). […]
Statistical significance (controls v. adenosine group) was determinted with Student's t-test for unpaired data. For significance within the groups the Wilcoxon Rank Sum test was used. p […] 0.05 was regarded as significant.

[4] = test system: cardiac output; test: Cardiac output; type: in vivo, human; details: for cardiac output and heart work (words): intravenous infusion
Excerpt: This is in contrast to other vasodilators, such as sodium nitroprusside, which may reduce cardiac output, depending on the hemodynamic status of the patient. As a consequence, adenosine can be used to stimulate cardiac output in patients with low cardiac output states, due, for example, to heart surgery, infarct and the like.
For this application, effective dosages are intermediate those used for increased graft flow and controlled hypotension. Typically the effective dose is of the order of 40-80 ug/kg/per minute. The duration of treatment can be as long as required to support the heart.

[5] = test system: pulmonary vascular resistance
[6] = human, in vivo
[7] = test system: atrio-ventricular (A-V) node; details: through blockage of the A-V node; cited from earlier work
[8] = test system: cardiovascular system; details: bolus about 37.5 to 450 micrograms/kg; cited from earlier work

## Nc1ncnc2c1ncn2[C@@H]1O[C@H](CO)[C@@H](O)[C@H]1O [adenosine]
[1]; human, iv
  concentration: 2450 ± 650 nM
[1]
  time for arterial adenosine levels to return to control values after termination of infusion: 3 to 9 min
[2]; about 0.2 to about 0.35 mg/kg/min
  mean arterial blood pressure achieved: 40 to 50 mm Hg
[2]; as low as, cannula in left radial artery
  mean arterial blood pressure achieved without significant side effects: 40 millimeters of mercury
[2]; man 0.2 to 0.35 mg/kg/minute
  effective adenosine dose in man relative to dog: 30 to 50 times lower
[3]; 60 min to end of CPB and 30 min after CPB
  intergroup difference in platelet counts: significant intergroup difference in platelet counts
[3]; cardiopulmonary bypass
  infusion rate effective in protecting platelets: about 100 ug/kg/min
[3]; during CPB, 10 minutes
  Platelet Count; % of Awake Count: 96 % of Awake Count
[3]; during CPB, 20 minutes
  Platelet Count; % of Awake Count: 87 % of Awake Count
[3]; during CPB, 40 minutes
  Platelet Count; % of Awake Count: 85 % of Awake Count
[3]; during CPB, 60 minutes
  Platelet Count; % of Awake Count: 91 % of Awake Count
[3]; during CPB, 80 minutes
  Platelet Count; % of Awake Count: 100 % of Awake Count
[3]; during CPB, 100 minutes
  Platelet Count; % of Awake Count: 97 % of Awake Count
[3]; during adenosine infusion
  initial platelet reduction: small, and was significant only at 20 and 40 minutes on CPB
[3]; post CPB, 30 minutes
  Platelet Count; % of Awake Count: 88 % of Awake Count
[3]; post CPB, 24 hours
  Platelet Count; % of Awake Count: 60 % of Awake Count
[4]; 40-80 ug/kg/per minute
  cardiac output on termination of adenosine: frequently remains above the cardiac output prior to treatment
[4]
  cardiac output and heart work (words): increase cardiac output without increasing heart work
[4]; listed as Adenosine
  cardiac output and heart work (words): significantly increasing cardiac output without significantly increasing cardiac work
[5]; intravenous, hypoxic ventilation during anesthesia
  pulmonary vascular resistance in induced pulmonary hypertension: marked reduction
[5]; pig, in vivo
  systemic vasodilator effects, cardiac output, arterial oxygen at doses lowering pulmonary resistance: commonly do not result in detectable vasodilator effects or effects on cardiac output or arterial oxygen function
[6]
  symptoms in awake patient at higher doses: facial flushing, neck and chest oppression, palpitation and increased rate of respiration
[7]
  heart block: produce heart block
[8]
  vasodilating action of injectable bolus: little detectable vasodilating action
